Source: ChEMBL document CHEMBL3392983, “Synthesis, antimicrobial activity and molecular docking of novel tetracyclic scaffolds incorporating a flavonoid framework with medium sized oxygen heterocycles” (2015)
In brackets after ≈: the same amount, converted by molar mass.

Legend:
Type in all cases: functional
Candida tropicalis = assay: Antimicrobial activity against Candida tropicalis ATCC 750 assessed as inhibition of microbial growth incubated for 72 hrs by broth dilution method; details: ATCC 750, 72 h
Pseudomonas aeruginosa [1] = assay: Bactericidal activity against Pseudomonas aeruginosa ATCC 10145 assessed as microbial killing during 18 hrs post sub-culture onto drug-free solid media by broth dilution method; details: ATCC 10145, 18 h, read-out: MBC99.9
Escherichia coli [2] = assay: Bactericidal activity against Escherichia coli ATCC 10536 assessed as microbial killing during 18 hrs post sub-culture onto drug-free solid media by broth dilution method; details: ATCC 10536, 18 h, read-out: MBC99.9
Staphylococcus aureus [3] = assay: Antimicrobial activity against Staphylococcus aureus ATCC 25923 assessed as inhibition of microbial growth incubated for 24 hrs by broth dilution method
Pseudomonas aeruginosa [4] = assay: Antimicrobial activity against Pseudomonas aeruginosa ATCC 10145 assessed as inhibition of microbial growth incubated for 24 hrs by broth dilution method
Escherichia coli [5] = assay: Antimicrobial activity against Escherichia coli ATCC 10536 assessed as inhibition of microbial growth incubated for 24 hrs by broth dilution method
Staphylococcus aureus [6] = assay: Bactericidal activity against Staphylococcus aureus ATCC 25923 assessed as microbial killing during 18 hrs post sub-culture onto drug-free solid media by broth dilution method; details: ATCC 25923, 18 h, read-out: MBC99.9
Bacillus subtilis [7] = assay: Antimicrobial activity against Bacillus subtilis ATCC 6633 assessed as inhibition of microbial growth incubated for 24 hrs by broth dilution method
Bacillus subtilis [8] = assay: Bactericidal activity against Bacillus subtilis ATCC 6633 assessed as microbial killing during 18 hrs post sub-culture onto drug-free solid media by broth dilution method; details: ATCC 6633, 18 h, read-out: MBC99.9
Klebsiella pneumoniae = assay: Antimicrobial activity against Klebsiella pneumoniae ATCC 10031 assessed as inhibition of microbial growth incubated for 24 hrs by broth dilution method
Candida albicans = assay: Antimicrobial activity against Candida albicans ATCC 10231 assessed as inhibition of microbial growth incubated for 72 hrs by broth dilution method; details: ATCC 10231, 72 h

| Compound | MIC (Candida tropicalis) [µM] | MIC (Staphylococcus aureus [3]; ATCC 25923, 24 h) [µM] | MIC (Pseudomonas aeruginosa [4]; ATCC 10145, 24 h) [µM] | MIC (Escherichia coli [5]; ATCC 10536, 24 h) [µM] | MIC (Bacillus subtilis [7]; ATCC 6633, 24 h) [µM] | MIC (Klebsiella pneumoniae; ATCC 10031, 24 h) [µM] | MIC (Candida albicans) [µM] | MIC (Staphylococcus aureus [3]) [µM] | MIC (Pseudomonas aeruginosa [4]) [µM] | MIC (Escherichia coli [5]) [µM] | MIC (Bacillus subtilis [7]) [µM] | MIC (Klebsiella pneumoniae) [µM] | MBC (Pseudomonas aeruginosa [1]) [µM] | MBC (Escherichia coli [2]) [µM] | MBC (Staphylococcus aureus [6]) [µM] | MBC (Bacillus subtilis [8]) [µM] |
| --- | --- | --- | --- | --- | --- | --- | --- | --- | --- | --- | --- | --- | --- | --- | --- | --- |
| O=c1c2c(oc3ccccc13)-c1ccccc1OCCO2 | > 0.714 | 0.142 | 0.125 | 0.108 | 0.071 | 0.107 | > 0.714 | – | – | – | – | – | 0.071 (≈ 0.0199 µg/mL) | 0.085 (≈ 0.0238 µg/mL) | 0.142 (≈ 0.0398 µg/mL) | 0.071 (≈ 0.0199 µg/mL) |
| O=c1c2c(oc3ccccc13)-c1ccccc1OCCCO2 | > 0.68 | 0.272 | 0.136 | 0.051 | 0.085 | 0.102 | > 0.68 | – | – | – | – | – | 0.084 (≈ 0.0247 µg/mL) | 0.052 (≈ 0.0153 µg/mL) | 0.136 (≈ 0.04 µg/mL) | 0.034 (≈ 0.01 µg/mL) |
| O=c1c2c(oc3ccccc13)-c1ccccc1OCCCCO2 | > 0.649 | 0.097 | 0.113 | 0.146 | 0.064 | 0.064 | > 0.649 | – | – | – | – | – | 0.082 (≈ 0.0253 µg/mL) | 0.072 (≈ 0.0222 µg/mL) | 0.059 (≈ 0.0182 µg/mL) | 0.064 (≈ 0.0197 µg/mL) |
| O=c1c2c(oc3ccc(F)cc13)-c1ccccc1OCCCO2 | > 0.641 | 0.129 | 0.064 | 0.16 | 0.081 | 0.112 | > 0.641 | – | – | – | – | – | 0.032 (≈ 0.00999 µg/mL) | 0.096 (≈ 0.03 µg/mL) | 0.116 (≈ 0.0362 µg/mL) | 0.032 (≈ 0.00999 µg/mL) |
| O=c1c(O)c(-c2ccccc2O)oc2ccc(Cl)cc12 | > 0.694 | 0.19 | 0.157 | 0.14 | 0.173 | 0.138 | > 0.694 | – | – | – | – | – | – | – | – | – |
| O=c1c2c(oc3ccc(F)cc13)-c1ccccc1OCCCCO2 | > 0.613 | 0.153 | 0.076 | 0.062 | 0.092 | 0.046 | > 0.613 | – | – | – | – | – | 0.03 (≈ 0.00979 µg/mL) | 0.055 (≈ 0.0179 µg/mL) | 0.081 (≈ 0.0264 µg/mL) | 0.04 (≈ 0.0131 µg/mL) |
| GENTAMICIN SULFATE | – | – | – | – | – | – | – | < 0.017 | < 0.017 | < 0.017 | < 0.017 | < 0.017 | – | – | – | – |

Second part, led by results:

| MIC (Candida tropicalis) [µM] | MIC (Staphylococcus aureus [3]; ATCC 25923, 24 h) [µM] | MIC (Pseudomonas aeruginosa [4]; ATCC 10145, 24 h) [µM] | MIC (Escherichia coli [5]; ATCC 10536, 24 h) [µM] | MIC (Bacillus subtilis [7]; ATCC 6633, 24 h) [µM] | MIC (Klebsiella pneumoniae; ATCC 10031, 24 h) [µM] | MIC (Candida albicans) [µM] | MIC (Staphylococcus aureus [3]) [µM] | MIC (Pseudomonas aeruginosa [4]) [µM] | MIC (Escherichia coli [5]) [µM] | MIC (Bacillus subtilis [7]) [µM] | MIC (Klebsiella pneumoniae) [µM] | Compound | MBC (Pseudomonas aeruginosa [1]) [µM] | MBC (Escherichia coli [2]) [µM] | MBC (Staphylococcus aureus [6]) [µM] | MBC (Bacillus subtilis [8]) [µM] |
| --- | --- | --- | --- | --- | --- | --- | --- | --- | --- | --- | --- | --- | --- | --- | --- | --- |
| > 0.584 | 0.204 | 0.146 | 0.029 | 0.073 | 0.146 | > 0.584 | – | – | – | – | – | O=c1c2c(oc3ccc(Cl)cc13)-c1ccccc1OCCCCO2 | 0.058 (≈ 0.0199 µg/mL) | 0.028 (≈ 0.0096 µg/mL) | 0.154 (≈ 0.0528 µg/mL) | 0.024 (≈ 0.00823 µg/mL) |
| > 0.5 | 0.051 | 0.062 | 0.025 | 0.063 | 0.037 | > 0.5 | – | – | – | – | – | O=c1c2c(oc3ccc(Br)cc13)-c1ccccc1OCCCCCO2 | 0.05 (≈ 0.0201 µg/mL) | 0.02 (≈ 0.00803 µg/mL) | 0.04 (≈ 0.0161 µg/mL) | 0.035 (≈ 0.014 µg/mL) |
| > 0.602 | 0.152 | 0.12 | 0.135 | 0.167 | 0.135 | > 0.602 | – | – | – | – | – | O=c1c(O)c(-c2ccccc2O)oc2ccc(Br)cc12 | – | – | – | – |
| > 0.609 | 0.092 | 0.06 | 0.045 | 0.077 | 0.106 | > 0.609 | – | – | – | – | – | O=c1c2c(oc3ccc(Cl)cc13)-c1ccccc1OCCCO2 | 0.03 (≈ 0.00986 µg/mL) | 0.03 (≈ 0.00986 µg/mL) | 0.051 (≈ 0.0168 µg/mL) | 0.075 (≈ 0.0247 µg/mL) |
